This is an account of results in PubChem BioAssay (NCI).

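96-well plates; 48 h exposure; 5 concentrations. Endpoints by linear interpolation between flanking doses. Not reached: highest tested concentration assigned. At the GI50, growth is halved. TGI is the concentration that stops growth completely.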

Holding throughout (experiment): NCI anticancer screen, dose series, 48 h
Assay [1] relates to CAKI-1 renal.
Assay [2] has as its system COLO 205 colon.
In assay [3] the test system is DU-145 prostate.
In assay [4] the test system is HOP-62 NSCLC.
Assay [5] concerns K-562 leukemia.
The subject of assay [6] is MDA-MB-231 breast.
For assay [7], the system named is SF-295 CNS.
The subject of assay [8] is SK-OV-3 ovarian.
The test system of assay [9] is TK-10 renal.
Assay [10] deals with UACC-257 melanoma.

As to `C=CC(C)(C)n1cc(C2=C(O)C(=O)C(c3cn(C(C)(C)C=C)c4ccccc34)=C(O)C2=O)c2ccccc21`, the TGI in assay [1] is 6.56 µM; in assay [2], 30 µM; in assay [3] it was 18.9 µM; in assay [4], 8.43 µM; in [5], more than 100 µM; in assay [6], 8.27 µM. The TGI in [7] is 12.8 µM; in [8], 10.4 µM; in assay [9] it was 10.9 µM; in assay [10], 9.73 µM.
As to `FC(F)(F)c1ccc(-c2nn3ncccc3c2-c2ccnc(Nc3ccc4c(c3)OCCO4)n2)cc1`, the GI50 in assay [1] was 4.86 µM; in [2], 16.6 µM; in [3] it was 16.4 µM; in assay [4], more than 25 µM; in assay [5], 8.79 µM; in [6] it was 3.49 µM. For the same compound, the GI50 in assay [7] was 6.91 µM; in assay [8], 9.08 µM; in assay [9], 10.1 µM; in [10], 7.23 µM. The TGI in assay [1] was more than 19.2 µM; in assay [2], more than 25 µM; in [3], more than 25 µM; in assay [4] it was more than 25 µM; in assay [5] it was more than 25 µM; in [6], more than 21.9 µM. Also, the TGI in [7], in assay [8], in assay [9] and in assay [10] was more than 25 µM in each case.
In the case of `CCn1cc(/C=C2\Oc3cc(OCC#N)ccc3C2=O)c2cc(OC)ccc21`, the GI50 in assay [1] is 0.0663 µM; in assay [2], 0.348 µM; in assay [3], 0.44 µM; in [4] it was 0.622 µM; in [5], 0.0888 µM; in assay [6], 1.47 µM. The GI50 was 0.221 µM in [7], 1.7 µM in [8], 18.1 µM in assay [9] and 57.8 µM in assay [10]. Further, the TGI in assay [1] was 28.9 µM; in [2], 4.12 µM; in assay [3], more than 62 µM; in assay [4], more than 46.6 µM; in [5], more than 100 µM; in assay [6], more than 77.3 µM. In addition, the TGI is 20.7 µM in assay [7], more than 78.5 µM in assay [8], more than 64.1 µM in [9] and more than 100 µM in assay [10].
Consider `O=C(NN1C(=O)CSC1c1cccc(Cl)c1)C(O)c1ccccc1` (stereo not drawn), for which the GI50 in [1] was 90.3 µM; in assay [2], more than 100 µM; in assay [3], 83.4 µM; in assay [4] it was more than 100 µM; in [5], 27.4 µM; in [6] it was 87.7 µM. The GI50 in assay [7] was 22.4 µM; in assay [8] it was more than 100 µM; in assay [9] it was more than 100 µM; in assay [10] it was more than 100 µM. The TGI in [1], in assay [2], in assay [3], in assay [4], in assay [5] and in [6] was more than 100 µM each time. The TGI in assay [7], in assay [8], in assay [9] and in assay [10] was more than 100 µM each time.
With `CCSc1ccc([C@@H]2[C@@H](O)C(=O)N2c2cc(OC)c(OC)c(OC)c2)cc1`, the GI50 in assay [2] was 0.0163 µM; in assay [3] it was 0.0252 µM; in assay [4], less than 0.0125 µM; in assay [5] it was less than 0.01 µM; in assay [6], 0.0395 µM; in assay [7], less than 0.01 µM. The GI50 was 0.0271 µM in [8], 17.7 µM in assay [9] and 0.0877 µM in assay [10]. Besides, the TGI in assay [2] is 0.072 µM; in assay [3], more than 50.3 µM; in assay [4], 32.5 µM; in assay [5] it was more than 69.9 µM; in [6], 29.4 µM; in assay [7], 17.5 µM. Further, the TGI in assay [8] worked out at 38.1 µM; in assay [9] it was 84.1 µM; in [10], 35 µM.
Take `Cn1c(=O)n(C)c2cc(CNCCNc3ccnc4cc(Cl)ccc34)ccc21`: the GI50 is 36.3 µM in assay [1]; 17.2 µM in [2]; 38.5 µM in assay [3]; 39.4 µM in [4]; 6.99 µM in assay [5]; 11.2 µM in assay [6]. Further, the GI50 in assay [7] is 15.3 µM; in assay [8], 72.7 µM; in [9] it was 40.2 µM; in [10], 17.6 µM. The TGI was more than 100 µM in assay [1]; 35.8 µM in assay [2]; more than 100 µM in assay [3]; more than 100 µM in [4]; 39.4 µM in [5]; 45.2 µM in assay [6]. Besides, the TGI in assay [7] was 40.1 µM; in assay [8], more than 100 µM; in assay [9], more than 100 µM; in assay [10], 33.3 µM.
For `CC(C)(C)[Si](C)(C)OC1[C@@H](CNC(N)=O)O[C@@H](n2cnc3c(NC(=O)Nc4ccccc4)ncnc32)[C@H]1O[Si](C)(C)C(C)(C)C` (stereo partly drawn), the GI50 was 1.76 µM in assay [1]; 1.23 µM in assay [2]; 1.71 µM in assay [3]; 6.38 µM in assay [4]; 1.06 µM in assay [5]; 5.49 µM in assay [6]. In addition, the GI50 in assay [7] is 2.04 µM; in [8], 3.29 µM; in [10] it was 5.36 µM. For the same compound, the TGI in [1] came to 7.12 µM; in assay [2], 2.7 µM; in assay [3] it was 5.59 µM; in [4], 12.9 µM; in assay [5], 2.13 µM; in [6], 12 µM. Besides, the TGI turned out to be 7.9 µM in [7], 9.53 µM in [8] and 12.1 µM in assay [10].
Consider `O=C1/C(=C\c2ccco2)Oc2ccccc21`, for which the TGI in [1], in [2], in [3], in assay [4], in [5] and in assay [6] was more than 100 µM each time. Moreover, the TGI in assay [7], in assay [8], in assay [9] and in assay [10] was more than 100 µM in each case.
Consider `CO[C@H]1/C=C/O[C@@]2(C)Oc3c(C)c(O)c4c(O)c(c(/C=N/N5CCN(C)CC5)c(O)c4c3C2=O)NC(=O)/C(C)=C\C=C\[C@H](C)[C@H](O)[C@@H](C)[C@@H](O)[C@@H](C)[C@H](OC(C)=O)[C@@H]1C`, for which the TGI in assay [1], in assay [2], in assay [3], in assay [4], in assay [5] and in assay [6] was more than 100 µM each time. For the same compound, the TGI in assay [8], in assay [9] and in assay [10] was more than 100 µM each time.
With `COc1cc(OC)c2sc(-c3ccc(-n4cncc4-c4ccc(OC)c(OC)c4)cc3)nc2c1`, the GI50 in assay [3] is 27.9 µM; in assay [4], 35.5 µM; in assay [5], 5.88 µM; in [6] it was 28.4 µM; in assay [7], 7 µM; in assay [8], more than 100 µM. In addition, the GI50 in [9] was 31.7 µM; in assay [10] it was more than 100 µM. Besides, the TGI in [3], in [4], in assay [5], in assay [6], in assay [7] and in assay [8] was more than 100 µM throughout. In addition, the TGI in assay [9] and in assay [10] was more than 100 µM in each case.
Regarding `COc1ccc(-c2nc(-c3nc4cc(Cl)c(F)cc4[nH]3)c3ccccn23)cc1`, the GI50 was 5.35 µM in assay [1]; 7.1 µM in [2]; 6.58 µM in assay [3]; 19.8 µM in assay [4]; 4.84 µM in assay [5]; 5.82 µM in assay [6]. Besides, the GI50 in assay [8] was more than 100 µM; in assay [9], 5.25 µM; in assay [10], 3.15 µM. The TGI in assay [1], in [2], in assay [3], in assay [4], in assay [5] and in assay [6] was more than 100 µM each time. The TGI was more than 100 µM in [8], more than 100 µM in assay [9] and 13.2 µM in assay [10].
Consider `CCCc1nc(Cl)nc(Cl)c1Cl`, for which the TGI in assay [1] turned out to be 0.433 µM; in assay [3] it was 9.93 µM; in [4] it was 2.44 µM; in [5], 0.118 µM; in assay [6] it was 2.07 µM; in assay [7], 6.89 µM. The figures for the TGI in assay [8], in assay [9] and in assay [10] were 6.95 µM, 4.71 µM and 2 µM, respectively.
With `CC(/C=C/C(O)=C1/C(=O)CNC1=O)=C\[C@@H](C)[C@H]1O[C@@]2(C)O[C@H](C(=O)[C@@H]3O[C@@]32C)[C@@H]1C`, the TGI in assay [1] was 57 µM; in [2], 43.6 µM; in [3], 40.1 µM; in assay [4], 43.1 µM; in [5] it was more than 100 µM; in assay [6], 38.1 µM. The values for the TGI in assay [8], in assay [9] and in assay [10] were 46.8 µM, 44.2 µM and 35.6 µM, respectively.
Consider `O=C1c2cccnc2-c2nc(-c3cccnc3)cc3c2c1nc1ccccc13`, for which the GI50 in assay [1] was 6.96 µM; in [2], 3.33 µM; in assay [3], 3 µM; in [4] it was 1.73 µM; in [5] it was 1.67 µM; in [6], 4.43 µM. Also, the GI50 is 1.92 µM in assay [7], 15.3 µM in assay [8] and 10.1 µM in assay [10]. Besides, the TGI was 22.8 µM in assay [1]; 10.9 µM in assay [2]; 8.31 µM in assay [3]; 3.22 µM in assay [4]; more than 100 µM in assay [5]; more than 72 µM in assay [6]. Moreover, the TGI amounted to 3.71 µM in assay [7], 29.8 µM in [8] and 15.1 µM in [10].
In the case of `Cc1cc(NCc2cc(Nc3ccnc4cc(Cl)ccc34)ccc2F)nc(N2CCOCC2)n1`, the GI50 in [1] is 1.52 µM; in assay [3], 3.2 µM; in assay [5], 1.73 µM; in assay [6], 1.83 µM; in [8] it was 1.7 µM; in [9] it was 1.96 µM. The TGI in assay [1] turned out to be 3.21 µM; in [3] it was 12.5 µM; in [5], 6.18 µM; in [6] it was 4.51 µM; in [8], 3.36 µM; in assay [9], 3.92 µM.
Take `ClCc1cccc(Cn2cnc3c(Cl)nc(Cl)nc32)c1`: the GI50 in [1] is 2.22 µM; in [2], 2.22 µM; in assay [3], 1.59 µM; in [4], 2.29 µM; in [5], 1.6 µM; in assay [6] it was 1.95 µM. In addition, the GI50 is 4.37 µM in assay [7], 1.74 µM in assay [9] and 1.86 µM in assay [10]. Also, the TGI was 5.85 µM in [1]; 5.39 µM in assay [2]; 2.98 µM in assay [3]; 4.38 µM in [4]; more than 100 µM in [5]; 3.76 µM in assay [6]. The TGI in assay [7] worked out at 17.1 µM; in [9], 3.95 µM; in [10] it was 3.45 µM.
With `C=C1C(=O)O[C@H]2[C@H]1CC/C(COC(=O)NCc1ccc(Cn3c(=O)sn(CCCCC)c3=O)cc1)=C\CC[C@@]1(C)O[C@@H]21`, the GI50 in assay [1] was 2.84 µM; in assay [2], 1.78 µM; in assay [3], 1.68 µM; in assay [4], 9.53 µM; in [6] it was 1.72 µM; in [7] it was 12.5 µM. The GI50 in assay [8] is 8.77 µM; in assay [9], 1.96 µM; in assay [10], 1.57 µM. Further, the TGI was determined as 12.9 µM in assay [1]; 3.33 µM in assay [2]; 3.04 µM in assay [3]; 22.6 µM in assay [4]; 3.46 µM in assay [6]; 25.1 µM in assay [7]. Moreover, the TGI was determined as 21.1 µM in assay [8], 3.66 µM in [9] and 3.03 µM in assay [10].
